According to ChEMBL document CHEMBL1201862, “PubChem BioAssay data set” (2004):
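Cells were grown in 96-well plates and exposed to each compound for 48 hours at five concentrations; endpoints were interpolated linearly between bracketing concentrations, or set to the highest concentration if not reached. GI50 is the concentration that inhibits growth by half.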 Active and inactive are the calls of the source. Cut-off read from the data, not from the text of the source: active = GI50 up to about 1.1 µM and inactive = higher.

How the values were obtained:
Experiment in all cases: growth of human tumour cells (NCI), 48 h
TK-10 = test system: TK-10
RXF 393 = test system: RXF 393
PC-3 = test system: PC-3
786-0 = test system: 786-0
DU-145 = test system: DU-145
HCT-15 = test system: HCT-15
ACHN = test system: ACHN
UACC-62 = test system: UACC-62
SN12C = test system: SN12C
HCT-116 = test system: HCT-116
Malme-3M = test system: Malme-3M
CCRF-CEM = test system: CCRF-CEM
BT-549 = test system: BT-549
UO-31 = test system: UO-31
MDA-N = test system: MDA-N
K562 = test system: K562
RPMI-8226 = test system: RPMI-8226
M14 = test system: M14
SW-620 = test system: SW-620
U-251 = test system: U-251
OVCAR-5 = test system: OVCAR-5
SK-MEL-5 = test system: SK-MEL-5
NCI/ADR-RES = test system: NCI/ADR-RES
MDA-MB-435 = test system: MDA-MB-435
SF-539 = test system: SF-539
HCC 2998 = test system: HCC 2998
IGROV-1 = test system: IGROV-1
OVCAR-8 = test system: OVCAR-8
SF-268 = test system: SF-268
T47D = test system: T47D
SK-MEL-28 = test system: SK-MEL-28
NCI-H226 = test system: NCI-H226
COLO 205 = test system: COLO 205
OVCAR-3 = test system: OVCAR-3
KM12 = test system: KM12
HT-29 = test system: HT-29
SNB-19 = test system: SNB-19
SF-295 = test system: SF-295
HL-60 = test system: HL-60
MOLT-4 = test system: MOLT-4
A549 = test system: A549
HOP-62 = test system: HOP-62
HOP-92 = test system: HOP-92
NCI-H23 = test system: NCI-H23
NCI-H460 = test system: NCI-H460
EKVX = test system: EKVX
MDA-MB-231 = test system: MDA-MB-231
SK-OV-3 = test system: SK-OV-3
MCF7 = test system: MCF7
CAKI-1 = test system: CAKI-1
SNB-75 = test system: SNB-75
OVCAR-4 = test system: OVCAR-4
NCI-H522 = test system: NCI-H522
SR = test system: SR
UACC-257 = test system: UACC-257
A498 = test system: A498
SK-MEL-2 = test system: SK-MEL-2
LOX IMVI = test system: LOX IMVI

CCN(CC)CCNc1n[n+]([O-])c2ccccc2[n+]1[O-]
GI50 (TK-10): 8.89 µM (inactive)
GI50 (RXF 393): 8.63 µM (inactive)
GI50 (PC-3): 8.53 µM (inactive)
GI50 (786-0): 4.74 µM (inactive)
GI50 (DU-145): 13.9 µM (inactive)
GI50 (HCT-15): 2 µM
GI50 (ACHN): 3.79 µM (inactive)
GI50 (UACC-62): 3.96 µM (inactive)
GI50 (SN12C): 3.56 µM (inactive)
GI50 (HCT-116): 8.22 µM (inactive)
GI50 (Malme-3M): 8.38 µM (inactive)
GI50 (CCRF-CEM): 3.57 µM (inactive)
GI50 (BT-549): 17.7 µM (inactive)
GI50 (UO-31): 17.9 µM (inactive)
GI50 (MDA-N): 12.2 µM (inactive)
GI50 (K562): 3.25 µM (inactive)
GI50 (RPMI-8226): 3.06 µM (inactive)
GI50 (M14): 10.1 µM (inactive)
GI50 (SW-620): 11.9 µM (inactive)
GI50 (U-251): 12.6 µM (inactive)
GI50 (OVCAR-5): 14.7 µM (inactive)
GI50 (SK-MEL-5): 1.57 µM (inactive)
GI50 (NCI/ADR-RES): 18.6 µM (inactive)
GI50 (MDA-MB-435): 22.3 µM (inactive)
GI50 (SF-539): 17.7 µM (inactive)
GI50 (HCC 2998): 3.39 µM (inactive)
GI50 (IGROV-1): 2.43 µM (inactive)
GI50 (OVCAR-8): 8.65 µM (inactive)
GI50 (SF-268): 18.9 µM (inactive)
GI50 (T47D): 5.32 µM (inactive)
GI50 (SK-MEL-28): 39.3 µM (inactive)
GI50 (NCI-H226): 9.93 µM (inactive)
GI50 (COLO 205): 5.52 µM (inactive)
GI50 (OVCAR-3): 9.02 µM (inactive)
GI50 (KM12): 9.98 µM (inactive)
GI50 (HT-29): 8.93 µM (inactive)
GI50 (SNB-19): 12.5 µM (inactive)
GI50 (SF-295): 4.78 µM (inactive)
GI50 (HL-60): 2.28 µM (inactive)
GI50 (MOLT-4): 1.73 µM (inactive)

CC(=O)OC(C)(C)CCC(=O)[C@](C)(O)[C@H]1[C@H](O)C[C@@]2(C)[C@@H]3CC=C4C(C)=C(OC5OC(CO)C(O)C(O)C5O)C(=O)C[C@@H]4[C@]3(C)C(=O)C[C@]12C (stereo not given in full)
GI50 (TK-10): > 100 µM (inactive)
GI50 (A549): > 100 µM (inactive)
GI50 (RXF 393): > 100 µM (inactive)
GI50 (PC-3): > 100 µM (inactive)
GI50 (786-0): > 100 µM (inactive)
GI50 (HOP-62): > 100 µM (inactive)
GI50 (DU-145): > 100 µM (inactive)
GI50 (HCT-15): > 100 µM
GI50 (ACHN): > 100 µM (inactive)
GI50 (UACC-62): > 100 µM (inactive)
GI50 (SN12C): > 100 µM (inactive)
GI50 (HCT-116): > 100 µM (inactive)
GI50 (Malme-3M): > 100 µM (inactive)
GI50 (HOP-92): > 100 µM (inactive)
GI50 (NCI-H23): > 100 µM (inactive)
GI50 (NCI-H460): > 100 µM (inactive)
GI50 (CCRF-CEM): > 100 µM (inactive)
GI50 (BT-549): > 100 µM (inactive)
GI50 (UO-31): > 100 µM (inactive)
GI50 (MDA-N): > 100 µM (inactive)
GI50 (K562): > 100 µM (inactive)
GI50 (EKVX): > 100 µM (inactive)
GI50 (M14): > 100 µM (inactive)
GI50 (SW-620): > 100 µM (inactive)
GI50 (MDA-MB-231): > 100 µM (inactive)
GI50 (U-251): > 100 µM (inactive)
GI50 (OVCAR-5): > 100 µM (inactive)
GI50 (SK-MEL-5): > 100 µM (inactive)
GI50 (NCI/ADR-RES): > 100 µM (inactive)
GI50 (SK-OV-3): > 100 µM (inactive)
GI50 (MCF7): > 100 µM (inactive)
GI50 (MDA-MB-435): > 100 µM (inactive)
GI50 (SF-539): > 100 µM (inactive)
GI50 (HCC 2998): > 100 µM (inactive)
GI50 (CAKI-1): > 100 µM (inactive)
GI50 (SNB-75): > 100 µM (inactive)
GI50 (IGROV-1): > 100 µM (inactive)
GI50 (OVCAR-8): > 100 µM (inactive)
GI50 (SF-268): > 100 µM (inactive)
GI50 (T47D): > 100 µM (inactive)
GI50 (SK-MEL-28): > 100 µM (inactive)
GI50 (OVCAR-4): > 100 µM (inactive)
GI50 (NCI-H226): > 100 µM (inactive)
GI50 (COLO 205): > 100 µM (inactive)
GI50 (NCI-H522): > 100 µM (inactive)
GI50 (OVCAR-3): > 100 µM (inactive)
GI50 (KM12): > 100 µM (inactive)
GI50 (SR): > 100 µM (inactive)
GI50 (HT-29): > 100 µM (inactive)
GI50 (UACC-257): > 100 µM (inactive)
GI50 (A498): > 100 µM (inactive)
GI50 (SK-MEL-2): > 100 µM (inactive)
GI50 (SNB-19): > 100 µM (inactive)
GI50 (SF-295): > 100 µM (inactive)
GI50 (LOX IMVI): > 100 µM (inactive)
GI50 (MOLT-4): > 100 µM (inactive)

O=c1ccn(C2OC(CO)C(O)C2O)c(=O)[nH]1 (stereo not given)
GI50 (DU-145): > 1000 µM (inactive)
GI50 (BT-549): > 1000 µM (inactive)
GI50 (M14): > 1000 µM (inactive)
GI50 (MDA-MB-231): > 1000 µM (inactive)
GI50 (OVCAR-5): > 1000 µM (inactive)
GI50 (CAKI-1): > 1000 µM (inactive)
GI50 (NCI-H226): > 1000 µM (inactive)
GI50 (NCI-H522): > 1000 µM (inactive)
GI50 (UACC-257): > 1000 µM (inactive)
